Results on one molecule are retold here after BindingDB's records for doi:10.1021/jm701358v (2008).

The target of the experiment is Bcl-xL (Homo sapiens). The experiment in a line: Binding affinity to human Bcl-xL protein by fluorescence polarization assay.

Structures are written as SMILES.

Turning to `O=C(c1ccc(Oc2ccccc2)cc1)c1cc(C(=O)c2nc3ccccc3s2)c(O)c(O)c1O`, the affinity corresponds to a Ki of 1110 nM.
